# Measurements published in the supplement of paper PMC10307832.
# Experiments:
# Experiment in all cases: relative viability (nuclei count vs DMSO), 5 days (fraction); higher = more cells survive
# [1] = compound: C1=CC=C(C(=C1)C2=CC=C(C=C2)C3=CSC4=C3C(=C(C(=O)N4)C#N)O)O + CCNC(=O)c1noc(-c2cc(C(C)C)c(O)cc2O)c1-c1ccc(CN2CCOCC2)cc1 [Luminespib] (partner 0.01 µM)
# How it was run: (§1)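 After 5 days of treatment, lung cancer cells in 1536-well plates were fixed and stained in a single step (final 0.05% Triton X-100, 1% formaldehyde, 1 ug/ml Hoechst) and their nuclei counted on 4× images. Treatment had been applied by pin tool the day after seeding as one drug alone or as a fixed anchor-drug dose with five library-drug doses (not always all listed) in √10 steps. Relative viability is the nuclei count of treated wells divided by that of vehicle wells, and values are medians of duplicate plates.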
# [2] = compound: C1=CC=C(C(=C1)C2=CC=C(C=C2)C3=CSC4=C3C(=C(C(=O)N4)C#N)O)O + CS(=O)(=O)CCNCc1ccc(-c2ccc3ncnc(Nc4ccc(OCc5cccc(F)c5)c(Cl)c4)c3c2)o1 [Lapatinib] (partner 2 µM)
# How it was run: as §1
# [3] = compound: O=C(CCCCCCNC(=O)c1cnc(N(c2ccccc2)c2ccccc2)nc1)NO [Ricolinostat] + CS(=O)(=O)N1CCN(Cc2cc3nc(-c4cccc5[nH]ncc45)nc(N4CCOCC4)c3s2)CC1 [Pictilisib] (partner 1 µM)
# How it was run: as §1
# [4] = compound: C1=CC=C(C(=C1)C2=CC=C(C=C2)C3=CSC4=C3C(=C(C(=O)N4)C#N)O)O + NC(=O)Nc1cc(-c2cccc(F)c2)sc1C(=O)N[C@H]1CCCNC1 [AZD7762] (partner 0.2 µM)
# How it was run: as §1
Cell Line,relative viability ([1]; first compound 0.08 µM),relative viability ([1]; first compound 0.253 µM),relative viability ([1]; first compound 0.8 µM),relative viability ([1]; first compound 2.53 µM),relative viability ([1]; first compound 8 µM),relative viability ([2]; first compound 0.08 µM),relative viability ([2]; first compound 0.253 µM),relative viability ([2]; first compound 0.8 µM),relative viability ([2]; first compound 2.53 µM),relative viability ([2]; first compound 8 µM),relative viability ([3]; first compound 0.08 µM),relative viability ([3]; first compound 0.253 µM),relative viability ([3]; first compound 0.8 µM),relative viability ([3]; first compound 2.53 µM),relative viability ([4]; first compound 0.08 µM),relative viability ([4]; first compound 0.253 µM),relative viability ([4]; first compound 0.8 µM),relative viability ([4]; first compound 2.53 µM),relative viability ([4]; first compound 8 µM)
201T,0.873,0.981,1.03,1.09,1.08,0.979,1.03,1.01,0.849,1.12,0.586,0.748,0.727,0.606,0.634,0.616,0.652,0.704,0.717
A549,–,–,–,–,–,1.01,0.912,1.06,0.971,0.918,0.405,0.517,0.471,0.312,–,–,–,–,–
A-427,0.735,1.37,0.916,1.06,0.927,0.917,1.06,1.2,1.03,1.2,0.626,0.722,0.781,0.757,0.672,0.81,0.746,0.776,0.716
ABC-1,0.509,0.768,0.78,0.481,0.513,1.52,1.49,1.42,1.13,0.997,0.541,0.731,0.606,0.446,0.781,0.881,0.799,0.855,0.827
BEN,0.354,0.345,0.305,0.71,0.331,0.577,0.663,0.716,0.87,0.645,0.462,0.532,0.425,0.354,0.647,0.692,0.675,0.807,0.73
CAL-12T,0.296,0.565,0.362,0.585,0.264,–,0.848,0.604,0.617,0.599,0.339,0.479,0.344,0.388,0.671,0.653,0.571,0.615,0.648
COR-L23,0.524,0.745,0.714,0.773,0.52,0.772,1.22,0.834,1.11,0.712,0.576,0.737,0.697,0.326,–,–,–,–,–
COR-L 105,0.881,0.821,0.722,0.625,0.752,0.4,0.353,0.34,0.344,0.345,0.367,0.412,0.485,0.279,–,–,–,–,–
